Experimental data taken from US9028845B2, “Chimeric immunomodulatory compounds and methods of using the same-IV” (Dynavax Technologies Corporation, priority 2001, dated 2015).
“Also recorded” adds a separate entry of the source.

Experiments:
[1] = tested on: human PBMCs; test: Human PBMC cytokine response assay (IFN-γ and IFN-α in cell-free medium by ELISA), with or without cPLGA;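 for IFN-α (pg/ml) mean: 20 µg/mL compound for 24 hours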;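 for IFN-γ (pg/ml) mean: 20 µg/mL compound for 24 hours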; assay type: cell-based; details: for IFN-α induction (FIG. 10), in words: PBMCs from 8 donors; for IFN-γ (pg/ml) 28065: donor 28065 (high background), 1000 = outside assay limits; for IFN-α (pg/ml) 28065: donor 28065; for IFN-α (pg/ml) 28066 / IFN-γ (pg/ml) 28066: donor 28066; for IFN-α (pg/ml) 28067 / IFN-γ (pg/ml) 28067: donor 28067; for IFN-α (pg/ml) 28068 / IFN-γ (pg/ml) 28068: donor 28068
[2] = tested on: CD19+ B cells; test: Human B cell proliferation assay (3H-thymidine incorporation); details: for cpm1 / cpm2 / cpm3 / mean cpm / mean of both: B cells, 2 μg/ml, Experiment B; for mean of both: mean of donors 121 and 194; for B cell proliferation (FIG. 11), in words: purified human B cells, 5 μg/ml, 96 h
[3] = Table 24, mean of donors 28234-28237
[4] = Table 25, mean of donors 28250-28253
[5] = mean of donors 110, 112, 119, 120, Table 14
[6] = mean of donors 28185-28188, Table 15
[7] = mean of donors 28218-28221, 20 μg/ml, 24 h
[8] = 20 ug/ml, 24 h, + PLGA = premixed with 100 μg/ml cPLGA
[9] = mean of donors 28065-28068, 20 ug/ml, 24 h, + PLGA = premixed with 100 μg/ml cPLGA

Substance: (5′-TCGTCGA-3′-HEG)2-glycerol-HEG-5′-TCGTCGA-3′ [Compound C-94]
- IFN-α induction (FIG. 10), in words ([1]; 20 μg/ml, 24 h): induce high levels of IFN-α
- IFN-α ([1]; Table 11, donor 28042): 302 pg/mL
- IFN-γ ([1]; Table 11, donor 28042): 443 pg/mL
- IFN-α ([1]; Table 11, donor 28043): 252 pg/mL
- IFN-γ ([1]; Table 11, donor 28043): 198 pg/mL
- IFN-α ([1]; Table 11, donor 28044): 664 pg/mL
- IFN-γ ([1]; Table 11, donor 28044): 1417 pg/mL
- IFN-α ([1]; Table 11, donor 28045): 1855 pg/mL
- IFN-γ ([1]; Table 11, donor 28045): 888 pg/mL
- IFN-α mean ([1]; Table 11, mean of donors): 768 pg/mL
- IFN-γ mean ([1]; Table 11, mean of donors): 736 pg/mL
- IFN-α ([1]; Table 24, donor 28234): 16 pg/mL
- IFN-γ ([1]; Table 24, donor 28234): 7 pg/mL
- IFN-α ([1]; Table 24, donor 28235): 118 pg/mL
- IFN-γ ([1]; Table 24, donor 28235): 161 pg/mL
- IFN-α ([1]; Table 24, donor 28236): 548 pg/mL
- IFN-γ ([1]; Table 24, donor 28236): 239 pg/mL
- IFN-α ([1]; Table 24, donor 28237): 3631 pg/mL
- IFN-γ ([1]; Table 24, donor 28237): 1116 pg/mL
- IFN-α mean [1, 3]: 1078 pg/mL
- IFN-γ mean [1, 3]: 381 pg/mL
- IFN-a ([1]; Table 25, donor 28250): 245 pg/mL
- IFN-g ([1]; Table 25, donor 28250, polynucleotides/spacers at amounts equivalent to the CIC, spacers alone 9 uM): 340 pg/mL
- IFN-a ([1]; Table 25, donor 28251): 645 pg/mL
- IFN-g ([1]; Table 25, donor 28251): 60 pg/mL
- IFN-a ([1]; Table 25, donor 28252): 323 pg/mL
- IFN-g ([1]; Table 25, donor 28252): 287 pg/mL
- IFN-a ([1]; Table 25, donor 28253): 1198 pg/mL
- IFN-g ([1]; Table 25, donor 28253): 128 pg/mL
- IFN-a mean [1, 4]: 603 pg/mL
- IFN-g mean [1, 4]: 204 pg/mL
- IFN-α induced relative to linear CIC C-21 ([1]; branched vs linear CIC with the same nucleic acid moieties): 4 fold
- IFN-α ([1]; donor 110, Table 14): 1608 pg/mL
- IFN-γ ([1]; donor 110, Table 14): 5168 pg/mL
- IFN-α ([1]; donor 112, Table 14): 144 pg/mL
- IFN-γ ([1]; donor 112, Table 14): 284 pg/mL
- IFN-α ([1]; donor 119, Table 14): 2610 pg/mL
- IFN-γ ([1]; donor 119, Table 14): 104 pg/mL
- IFN-α ([1]; donor 120, Table 14): 878 pg/mL
- IFN-γ ([1]; donor 120, Table 14): 120 pg/mL
- IFN-a ([1]; donor 28185, Table 15): 1895 pg/mL
- IFN-g ([1]; donor 28185, Table 15): 181 pg/mL
- IFN-a ([1]; donor 28186, Table 15): 239 pg/mL
- IFN-g ([1]; donor 28186, Table 15): 61 pg/mL
- IFN-a ([1]; donor 28187, Table 15): 136 pg/mL
- IFN-g ([1]; donor 28187, Table 15): 384 pg/mL
- IFN-a ([1]; donor 28188, Table 15): 13 pg/mL
- IFN-g ([1]; donor 28188, Table 15): 17 pg/mL
- IFN-a (pg/ml) 28218 ([1]; donor 28218, 20 μg/ml, 24 h): 32 pg/mL
- IFN-g (pg/ml) 28218 ([1]; donor 28218, 20 μg/ml, 24 h): 15 pg/mL
- IFN-a (pg/ml) 28219 ([1]; donor 28219, 20 μg/ml, 24 h): 167 pg/mL
- IFN-g (pg/ml) 28219 ([1]; donor 28219, 20 μg/ml, 24 h): 39 pg/mL
- IFN-a (pg/ml) 28220 ([1]; donor 28220, 20 μg/ml, 24 h): 633 pg/mL
- IFN-g (pg/ml) 28220 ([1]; donor 28220, 20 μg/ml, 24 h): 44 pg/mL
- IFN-a (pg/ml) 28221 ([1]; donor 28221, 20 μg/ml, 24 h): 412 pg/mL
- IFN-g (pg/ml) 28221 ([1]; donor 28221, 20 μg/ml, 24 h): 269 pg/mL
- IFN-α (pg/ml) mean [1, 5]: 1310 pg/mL
- IFN-γ (pg/ml) mean [1, 5]: 1419 pg/mL
- IFN-a (pg/ml) mean [1, 6]: 571 pg/mL
- IFN-g (pg/ml) mean [1, 6]: 161 pg/mL
- IFN-a (pg/ml) mean [1, 7]: 311 pg/mL
- IFN-g (pg/ml) mean [1, 7]: 92 pg/mL
- IFN-a (pg/ml) ×2 ([1]; mean ×2, Table 15): 1142 pg/mL
- IFN-g (pg/ml) ×4 ([1]; mean ×4, Table 15): 644 pg/mL
- IFN-α induction, in words ([1]; used alone): dramatically higher; also recorded: induced more IFN-α relative to linear CICs with HEG spacers; also recorded: HEG (C-94)>TEG (C-103)>C3 (C-104)=no linker (C-28)
- cpm1 ([2]; donor 121): 11418 cpm
- cpm2 ([2]; donor 121): 14406 cpm
- cpm3 ([2]; donor 121): 11110 cpm
- mean cpm ([2]; donor 121 mean): 12311 cpm
- cpm1 ([2]; donor 194): 7361 cpm
- cpm2 ([2]; donor 194): 8505 cpm
- cpm3 ([2]; donor 194): 5349 cpm
- mean cpm ([2]; donor 194 mean): 7072 cpm
- mean of both [2]: 9692 cpm
- B cell proliferation (FIG. 11), in words [2]: induce B cells to proliferate

Substance: (5′-TCGACGT-3′-HEG)3-trebler-HEG-5′-TCGACGT-3′ [Compound C-125]
- IFN-α induction (FIG. 10), in words ([1]; 20 μg/ml, 24 h): induce high levels of IFN-α
- B cell proliferation (FIG. 11), in words [2]: induce very little B cell proliferation

Substance: 5′-TCGTCG-3′-HEG-5′-TCGTCG-3′-HEG-5′-TCGTCG-3′ [Compound C-22]
- IFN-α ([1]; Table 9, donor 28089): 0 pg/mL
- IFN-γ ([1]; Table 9, donor 28089): 31 pg/mL
- IFN-α ([1]; Table 9, donor 28090): 46 pg/mL
- IFN-γ ([1]; Table 9, donor 28090): 15 pg/mL
- IFN-α ([1]; Table 9, donor 28098): 97 pg/mL
- IFN-γ ([1]; Table 9, donor 28098): 110 pg/mL
- IFN-α ([1]; Table 9, donor 28099): 247 pg/mL
- IFN-γ ([1]; Table 9, donor 28099): 91 pg/mL
- IFN-α mean ([1]; Table 9, mean of donors): 97 pg/mL
- IFN-γ mean ([1]; Table 9, mean of donors): 62 pg/mL
- IFN-α ([1]; Table 10, donor 28042): 12 pg/mL
- IFN-γ ([1]; Table 10, donor 28042): 206 pg/mL
- IFN-α ([1]; Table 10, donor 28043): 18 pg/mL
- IFN-γ ([1]; Table 10, donor 28043): 343 pg/mL
- IFN-α ([1]; Table 10, donor 28044): 67 pg/mL
- IFN-γ ([1]; Table 10, donor 28044): 736 pg/mL
- IFN-α ([1]; Table 10, donor 28045): 30 pg/mL
- IFN-γ ([1]; Table 10, donor 28045): 40 pg/mL
- IFN-α mean ([1]; Table 10, mean of donors): 32 pg/mL
- IFN-γ mean ([1]; Table 10, mean of donors): 331 pg/mL
- activity when formulated with cPLGA, in words ([1]; formulated with cPLGA): induced considerable IFN-γ and IFN-α when formulated with cPLGA
- IFN-γ induction, in words ([1]; used alone): induce IFN-γ when used alone
- cpm1 ([2]; donor 121): 17147 cpm
- cpm2 ([2]; donor 121): 14014 cpm
- cpm3 ([2]; donor 121): 6844 cpm
- mean cpm ([2]; donor 121 mean): 12668 cpm
- cpm1 ([2]; donor 194): 6472 cpm
- cpm2 ([2]; donor 194): 5540 cpm
- cpm3 ([2]; donor 194): 3894 cpm
- mean cpm ([2]; donor 194 mean): 5302 cpm
- mean of both [2]: 8985 cpm

Substance: 5′-TCGTCG-3′-HME-5′-ACGTTCG-3′-HME-5′-AGATGAT-3′ [Compound C-25]
- IFN-γ (pg/ml) 28065 [1, 8]: 541 pg/mL
- IFN-α (pg/ml) 28065 [1, 8]: 11 pg/mL
- IFN-α (pg/ml) 28066 [1, 8]: 0 pg/mL
- IFN-γ (pg/ml) 28066 [1, 8]: 6 pg/mL
- IFN-α (pg/ml) 28067 [1, 8]: 22 pg/mL
- IFN-γ (pg/ml) 28067 [1, 8]: 19 pg/mL
- IFN-α (pg/ml) 28068 [1, 8]: 79 pg/mL
- IFN-γ (pg/ml) 28068 [1, 8]: 337 pg/mL
- IFN-α (pg/ml) mean [1, 9]: 28 pg/mL
- IFN-γ (pg/ml) mean [1, 9]: 226 pg/mL
- cpm1 ([2]; donor 121): 34360 cpm
- cpm2 ([2]; donor 121): 35016 cpm
- cpm3 ([2]; donor 121): 26480 cpm
- mean cpm ([2]; donor 121 mean): 31952 cpm
- cpm1 ([2]; donor 194): 16060 cpm
- cpm2 ([2]; donor 194): 19509 cpm
- cpm3 ([2]; donor 194): 17384 cpm
- mean cpm ([2]; donor 194 mean): 17651 cpm
- mean of both [2]: 24802 cpm

Substance: (5′-TCGTTCG-3′-HEG)2-glycerol-HEG-5′-TCGTTCG-3′ [Compound C-158]
- IFN-α induction (FIG. 10), in words ([1]; 20 μg/ml, 24 h): induce high levels of IFN-α
- B cell proliferation (FIG. 11), in words [2]: induce B cells to proliferate

Substance: 5′-TCGTCG-3′-TEG-5′-ACGTTCG-3′-TEG-5′-AGATGAT-3′ [Compound C-18]
- IFN-γ (pg/ml) 28065 [1, 8]: 1000 pg/mL
- IFN-α (pg/ml) 28065 [1, 8]: 51 pg/mL
- IFN-α (pg/ml) 28066 [1, 8]: 9 pg/mL
- IFN-γ (pg/ml) 28066 [1, 8]: 102 pg/mL
- IFN-α (pg/ml) 28067 [1, 8]: 16 pg/mL
- IFN-γ (pg/ml) 28067 [1, 8]: 27 pg/mL
- IFN-α (pg/ml) 28068 [1, 8]: 162 pg/mL
- IFN-γ (pg/ml) 28068 [1, 8]: 695 pg/mL
- IFN-α (pg/ml) mean [1, 9]: 59 pg/mL
- IFN-γ (pg/ml) mean [1, 9]: 456 pg/mL
- cpm2 ([2]; donor 121): 17085 cpm
- cpm3 ([2]; donor 121): 14653 cpm
- mean cpm ([2]; donor 121 mean): 15869 cpm
- cpm1 ([2]; donor 194): 10028 cpm
- cpm2 ([2]; donor 194): 12217 cpm
- cpm3 ([2]; donor 194): 10538 cpm
- mean cpm ([2]; donor 194 mean): 10928 cpm
- mean of both [2]: 13398 cpm
